Test in all cases: NCI anticancer screen, dose series, 48 h
The subject of experiment [1] is OVCAR-8.
The subject of experiment [2] is NCI-H522.
Experiment [3] has as its system MOLT-4.
Experiment [4] relates to HCC 2998.
Experiment [5] deals with BT-549.
In experiment [6] the test system is OVCAR-5.
Experiment [7] has as its system MDA-N.
In experiment [8] the test system is A549.
Experiment [9] deals with IGROV-1.
Experiment [10] relates to MDA-MB-435.
In experiment [11] the test system is TK-10.
The subject of experiment [12] is RPMI-8226.
For experiment [13], the system named is NCI-H460.
The test system of experiment [14] is U-251.
In experiment [15] the test system is HOP-92.
Experiment [16] relates to HCT-15.
Experiment [17] relates to MCF7.
The subject of experiment [18] is DU-145.
Experiment [19] concerns NCI-H23.
Experiment [20] has as its system SK-OV-3.

SMILES strings stand for the structures.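 The compound was tested at five concentrations on cells cultured in 96-well plates, with a 48-hour exposure period. GI50 marks 50% less growth.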 Calls of active or inactive are those of the source. Rule as the data show it: active = GI50 up to about 1.1 µM and inactive = higher. Some results are limits rather than exact numbers.

As for `CC(=O)Nc1ccc2nc(-c3ccccn3)c(-c3ccccn3)nc2c1`, the GI50 in experiment [1], in [2], in experiment [3], in [4], in [5] and in [6] was > 100 µM (inactive) in each case. For the same compound, the GI50 in experiment [7], in experiment [8], in [9], in experiment [10], in [11] and in experiment [12] was > 100 µM (inactive) each time. Moreover, the GI50 in experiment [13] was > 100 µM (inactive); in experiment [14], > 100 µM (inactive); in experiment [15] it was > 100 µM (inactive); in experiment [16], more than 100 µM; in experiment [17], > 100 µM (inactive); in [18] it was > 100 µM (inactive).
`CC(C)OC(=O)C1=C2c3ncccc3C(=O)N2[C@@H](Cl)[C@H](Cl)[C@H]1Cl`: the GI50 in [1] is 31.7 µM (inactive); in experiment [2] it was 26.2 µM (inactive); in experiment [3], 22.5 µM (inactive); in experiment [4], > 100 µM (inactive); in [5] it was 36.9 µM (inactive); in experiment [6], > 100 µM (inactive). In addition, the GI50 was 50.9 µM (inactive) in experiment [7]; > 100 µM (inactive) in experiment [8]; 31.1 µM (inactive) in experiment [9]; 81.1 µM (inactive) in experiment [10]; > 100 µM (inactive) in experiment [11]; 21.8 µM (inactive) in [12]. Also, the GI50 was > 100 µM (inactive) in experiment [13]; 56.8 µM (inactive) in experiment [14]; 46.3 µM (inactive) in experiment [15]; 70.3 µM in [16]; 39.1 µM (inactive) in [17]; > 100 µM (inactive) in [18]. Also, the GI50 in [19] is 46.2 µM (inactive).
Take `O=C(N/N=C/c1ccc(Cl)cc1)c1cc(I)cc(I)c1O`: the GI50 in [1], in experiment [3], in [5], in experiment [6], in experiment [7] and in experiment [8] was > 100 µM (inactive) each time. Besides, the GI50 in [9] is > 100 µM (inactive); in experiment [10], > 100 µM (inactive); in [11] it was > 100 µM (inactive); in [12] it was > 100 µM (inactive); in experiment [14] it was > 100 µM (inactive); in experiment [15] it was 92.3 µM (inactive). Further, the GI50 in experiment [16] is more than 100 µM; in experiment [17], > 100 µM (inactive); in experiment [20], > 100 µM (inactive); in experiment [18], > 100 µM (inactive); in experiment [19], > 100 µM (inactive).
For `O=S(=O)(O)c1ccc(O)c2ncc(Cl)cc12`, the GI50 in experiment [1], in experiment [3], in [4], in [5], in experiment [6] and in experiment [7] was > 100 µM (inactive) each time. Further, the GI50 in [8] is > 100 µM (inactive); in experiment [9], > 100 µM (inactive); in experiment [10], > 100 µM (inactive); in [12], 51.1 µM (inactive); in experiment [13] it was > 100 µM (inactive); in experiment [14], > 100 µM (inactive). For the same compound, the GI50 in experiment [15] was > 100 µM (inactive); in experiment [16] it was more than 100 µM; in experiment [17] it was > 100 µM (inactive); in experiment [18], > 100 µM (inactive); in [19] it was > 100 µM (inactive).
As to `CSc1ncc2c(n1)-c1ccccc1OC2N1CCCC1` (configuration not stated), the GI50 is > 100 µM (inactive) in [1]; 36.6 µM (inactive) in experiment [2]; 79.8 µM (inactive) in experiment [3]; 75 µM (inactive) in experiment [5]; > 100 µM (inactive) in [6]; > 100 µM (inactive) in [7]. Besides, the GI50 is > 100 µM (inactive) in experiment [8]; 47.8 µM (inactive) in [9]; > 100 µM (inactive) in experiment [10]; 44.1 µM (inactive) in experiment [11]; 50.9 µM (inactive) in experiment [12]; > 100 µM (inactive) in experiment [13]. For the same compound, the GI50 in [14] was 68.5 µM (inactive); in experiment [15] it was > 100 µM (inactive); in experiment [16], 49.9 µM; in experiment [17], 71.3 µM (inactive); in experiment [20], > 100 µM (inactive); in [18], > 100 µM (inactive). The GI50 in experiment [19] is > 100 µM (inactive).
Consider `N=C(N)NCCCC(NC(=O)OCCCCCCn1ccc(N)nc1=O)C(=O)O` (configuration not stated), for which the GI50 in experiment [3], in [4], in [5], in experiment [6], in experiment [7] and in [8] was > 100 µM (inactive) each time. Besides, the GI50 in experiment [9], in experiment [10], in experiment [11], in experiment [12], in experiment [13] and in experiment [14] was > 100 µM (inactive) in each case. The GI50 in experiment [15] was > 100 µM (inactive); in experiment [16] it was more than 100 µM; in experiment [17], > 100 µM (inactive); in [20] it was > 100 µM (inactive); in experiment [18], > 100 µM (inactive); in [19], > 100 µM (inactive).
Take `CC1=CC(C2/C(=N/O)C=C(C)CC2(C)C)C(O)C(C)(C)C1` (configuration not stated): the GI50 in [1] is 17.5 µM (inactive); in experiment [3], 13.5 µM (inactive); in [4], 14.1 µM (inactive); in experiment [5], 17.6 µM (inactive); in experiment [6] it was 19.1 µM (inactive); in [7], 17 µM (inactive). For the same compound, the GI50 in experiment [8] is 15.5 µM (inactive); in experiment [9], 17.3 µM (inactive); in experiment [10], 16.4 µM (inactive); in experiment [11], 19.1 µM (inactive); in experiment [12], 14 µM (inactive); in experiment [13] it was 21.3 µM (inactive). For the same compound, the GI50 in [14] was 15.7 µM (inactive); in experiment [15] it was 14.1 µM (inactive); in [16] it was 16.3 µM; in [17], 15.3 µM (inactive); in experiment [20], 17.9 µM (inactive); in experiment [18], 15 µM (inactive). Moreover, in [19], the GI50 is 16.2 µM (inactive).
Turning to `Cc1nc(-c2ccc([N+](=O)[O-])cc2)cn2c1nc1ccccc12`, the GI50 in [1], in [3], in experiment [5], in experiment [6], in experiment [7] and in experiment [8] was > 100 µM (inactive) in each case. Besides, the GI50 was > 100 µM (inactive) in [9]; > 100 µM (inactive) in experiment [10]; 97.5 µM (inactive) in experiment [11]; > 100 µM (inactive) in experiment [12]; > 100 µM (inactive) in experiment [13]; 40.2 µM (inactive) in experiment [14]. Also, the GI50 in experiment [15] is 70.5 µM (inactive); in [16], more than 100 µM; in experiment [17], 58.3 µM (inactive); in experiment [20], 18.9 µM (inactive); in experiment [18] it was > 100 µM (inactive); in [19], > 100 µM (inactive).
`O=C(NC(CO)CO)c1ccc2cc(C(=O)N3CC(CCl)c4ccc([N+](=O)[O-])cc43)[nH]c2c1` (configuration not stated): the GI50 in [1], in experiment [3], in experiment [4], in [5], in experiment [6] and in experiment [7] was > 100 µM (inactive) in each case. Besides, the GI50 in experiment [8], in experiment [9], in [10], in [11], in experiment [13] and in experiment [14] was > 100 µM (inactive) throughout. For the same compound, the GI50 in [15] was > 100 µM (inactive); in experiment [16], more than 100 µM; in experiment [17], > 100 µM (inactive); in experiment [20], > 100 µM (inactive); in [18] it was > 100 µM (inactive); in experiment [19] it was > 100 µM (inactive).
For the compound `COc1cc(COC(=O)N2CCCCC2C(=O)O)c([N+](=O)[O-])cc1OC` (configuration not stated), the GI50 in [1], in experiment [3], in [4], in experiment [5], in experiment [6] and in [7] was > 100 µM (inactive) in each case. The GI50 in experiment [8], in experiment [9], in [10], in experiment [11], in experiment [12] and in experiment [13] was > 100 µM (inactive) throughout. The GI50 in [14] was > 100 µM (inactive); in [15] it was > 100 µM (inactive); in experiment [16], more than 100 µM; in [17], > 100 µM (inactive); in [20], > 100 µM (inactive); in experiment [18] it was > 100 µM (inactive). Further, the GI50 in experiment [19] is > 100 µM (inactive).
With `O=C1/C(=C/c2ccco2)N=C(c2ccccc2)N1c1cc2cc(Sc3ccccc3)ccc2[nH]1`, the GI50 in [1] was 22.8 µM (inactive); in experiment [2] it was 11.6 µM (inactive); in experiment [3], 22.4 µM (inactive); in experiment [5], 19.4 µM (inactive); in experiment [6], 21.6 µM (inactive); in experiment [7] it was 7.21 µM (inactive). For the same compound, the GI50 in experiment [8] was > 25 µM (inactive); in experiment [9], > 25 µM (inactive); in [10], 6.55 µM (inactive); in experiment [12], 0.457 µM (active); in [15] it was 8.24 µM (inactive); in [16] it was more than 25 µM. Also, the GI50 is 11 µM (inactive) in experiment [17], > 25 µM (inactive) in [18] and > 25 µM (inactive) in experiment [19].
